The target of series [1] is T1, DNA repair protein RAD51 homolog 1 (Homo sapiens) (UniProt Q06609).
T1 sequence (whole entry): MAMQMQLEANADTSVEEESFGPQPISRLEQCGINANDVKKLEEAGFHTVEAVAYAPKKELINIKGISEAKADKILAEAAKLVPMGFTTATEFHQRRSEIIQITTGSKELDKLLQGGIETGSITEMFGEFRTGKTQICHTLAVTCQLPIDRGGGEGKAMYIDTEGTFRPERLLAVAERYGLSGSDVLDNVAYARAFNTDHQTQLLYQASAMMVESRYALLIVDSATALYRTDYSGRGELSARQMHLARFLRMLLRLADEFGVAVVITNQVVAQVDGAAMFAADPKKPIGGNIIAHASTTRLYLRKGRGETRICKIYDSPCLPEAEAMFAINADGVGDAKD
As to the kind of experiment: Binding affinity to RAD51 (158 to 180 residues) (unknown origin) assessed as alpha-helical content at 15 uM by circular dichroism spectroscopy (reference value: 26.9%). In general terms: CD spectra are sensitive to the conformation of chiral molecules.

The target of series [2] is T1, DNA repair protein RAD51 homolog 1 (Homo sapiens). The series is described as follows: Binding affinity to RAD51 (158 to 180 residues) (unknown origin) assessed as quenching rate constant by fluorescence spectroscopy.
The target is the same in series [3]. As to the kind of experiment: Binding affinity to RAD51 (158 to 180 residues) (unknown origin) assessed as binding constant by fluorescence spectroscopy.
Series [4] has the same target. As to the kind of experiment: Binding affinity to RAD51 (158 to 180 residues) (unknown origin) assessed as reduction in fluorescence intensity by fluorescence spectroscopy. As to conditions: dose 6-30 µM, DDE = dose-dependent effect.
Series [5] shares this target. As to the kind of experiment: Binding affinity to RAD51 (158 to 180 residues) (unknown origin) assessed as beta-sheet content at 15 uM by circular dichroism spectroscopy (reference value: 17.7%).
Series [6] has the same target. As to the kind of experiment: Binding affinity to RAD51 (158 to 180 residues) (unknown origin) assessed as beta-turn content at 15 uM by circular dichroism spectroscopy (reference value: 16.2%).
For series [7] the target is unchanged. As to the kind of experiment: Binding affinity to RAD51 (158 to 180 residues) (unknown origin) assessed as random coil content at 15 uM by circular dichroism spectroscopy (reference value: 39.2%).
The subject of a further series is HEK293. As to the kind of experiment: Cytotoxicity against HEK293 cells assessed as reduction in cell viability at 200 uM. The conditions noted are these: human, hek293, 200 µM. In kind it is toxicity, cell-based.
The next series deals with MCF7. The series is described as follows: Cytotoxicity against human MCF7 cells assessed as cell viability at 100 uM relative to control. The conditions noted are these: read-out: Activity. The class given is functional.

The values that follow come from ChEMBL document CHEMBL5113443, “Design, synthesis and properties of peptide inhibitors based on BRCA1856-871” (Bioorg Med Chem Lett, 2022).

Where a SMILES comes first, the peptide text is derived from it. The star is where a group is joined. Nicotinoyl(6-CF3) = O=C(c1ccc(C(F)(F)F)nc1)*; X1 = O=C(c1cncc(C(F)(F)F)c1)*; X5 = O=C(c1ccc[n+]([O-])c1)*; Nicotinoyl = O=C(c1cccnc1)*; X2 = O=C(c1cccnc1C(F)(F)F)*; X3 = O=C(c1cccnc1Br)*; X4 = Cc1ccncc1C(=O)*; X6 = O=C(c1cccnc1S)*

On to `CC(C)C[C@H](NC(=O)[C@@H](N)Cc1ccc(O)cc1)C(=O)N[C@@H](CCC(N)=O)C(=O)N[C@@H](CC(N)=O)C(=O)N[C@H](C(=O)N[C@@H](Cc1ccccc1)C(=O)N[C@@H](CCCCN)C(=O)N[C@H](C(=O)N[C@@H](CO)C(=O)N[C@@H](CCCCN)C(=O)N[C@@H](CCCNC(=N)N)C(=O)N[C@@H](CCC(N)=O)C(=O)N[C@@H](CO)C(=O)N[C@@H](Cc1ccccc1)C(=O)N[C@@H](C)C(=O)N1CCC[C@H]1C(=O)O)C(C)C)[C@@H](C)O` (H-YLQNTFKVSKRQSFAP-OH), for which the Activity in [1] was 37.1%; in [4], “Dde”; in [5], 18.5%; in series [6] it was 26.4%; in series [7] it was 18%; with HEK293 it was “Non-Toxic”. The Kq in series [2] is 1.13 10^12/M. For the same compound, the Binding constant in [3] was 0.33 10^4/M. Also, the viability at 100 µM in the series with MCF7 is 90.6%.
Turning to `CC(C)C[C@H](NC(=O)[C@H](Cc1ccc(O)cc1)NC(=O)c1cccnc1)C(=O)N[C@@H](CCC(N)=O)C(=O)N[C@@H](CC(N)=O)C(=O)N[C@H](C(=O)N[C@@H](Cc1ccccc1)C(=O)N[C@@H](CCCCN)C(=O)N[C@H](C(=O)N[C@@H](CO)C(=O)N[C@@H](CCCCN)C(=O)N[C@@H](CCCNC(=N)N)C(=O)N[C@@H](CCC(N)=O)C(=O)N[C@@H](CO)C(=O)N[C@@H](Cc1ccccc1)C(=O)N[C@@H](C)C(=O)N1CCC[C@H]1C(N)=O)C(C)C)[C@@H](C)O` (Nicotinoyl-YLQNTFKVSKRQSFAP-NH2), the Activity is 43.4% in series [1]; 13.9% in [5]; 20.1% in [6]; 22.6% in series [7]; “Non-Toxic” in the series on HEK293. Moreover, the Kq in [2] is 0.96 10^12/M. Moreover, the Binding constant in series [3] is 1.26 10^4/M. For the same compound, in the series with MCF7, the viability at 100 µM came to 80.9%.
Regarding `CC(C)C[C@H](NC(=O)[C@H](Cc1ccc(O)cc1)NC(=O)c1cncc(C(F)(F)F)c1)C(=O)N[C@@H](CCC(N)=O)C(=O)N[C@@H](CC(N)=O)C(=O)N[C@H](C(=O)N[C@@H](Cc1ccccc1)C(=O)N[C@@H](CCCCN)C(=O)N[C@H](C(=O)N[C@@H](CO)C(=O)N[C@@H](CCCCN)C(=O)N[C@@H](CCCNC(=N)N)C(=O)N[C@@H](CCC(N)=O)C(=O)N[C@@H](CO)C(=O)N[C@@H](Cc1ccccc1)C(=O)N[C@@H](C)C(=O)N1CCC[C@H]1C(N)=O)C(C)C)[C@@H](C)O` (X1-YLQNTFKVSKRQSFAP-NH2), the Activity in series [1] was 46.7%; in [5], 13.4%; in series [6] it was 16.5%; in series [7], 23.4%; in the series on HEK293 it was “Non-Toxic”. Also, the Kq in [2] was 1.32 10^12/M. Also, in series [3], the Binding constant is 1.56 10^4/M. For the same compound, in the series with MCF7, the viability at 100 µM turned out to be 71%.
As to `CC(C)C[C@H](NC(=O)[C@H](Cc1ccc(O)cc1)NC(=O)c1cccnc1C(F)(F)F)C(=O)N[C@@H](CCC(N)=O)C(=O)N[C@@H](CC(N)=O)C(=O)N[C@H](C(=O)N[C@@H](Cc1ccccc1)C(=O)N[C@@H](CCCCN)C(=O)N[C@H](C(=O)N[C@@H](CO)C(=O)N[C@@H](CCCCN)C(=O)N[C@@H](CCCNC(=N)N)C(=O)N[C@@H](CCC(N)=O)C(=O)N[C@@H](CO)C(=O)N[C@@H](Cc1ccccc1)C(=O)N[C@@H](C)C(=O)N1CCC[C@H]1C(N)=O)C(C)C)[C@@H](C)O` (X2-YLQNTFKVSKRQSFAP-NH2), the Activity is 51.3% in [1]; 26.3% in series [5]; 11.6% in [6]; 10.8% in [7]; “Non-Toxic” in the series on HEK293. Besides, the Kq in [2] is 0.61 10^12/M. In addition, the Binding constant in [3] was 4.07 10^4/M. Also, the viability at 100 µM in the series on MCF7 was found to be 81.5%.
On to `CC(C)C[C@H](NC(=O)[C@H](Cc1ccc(O)cc1)NC(=O)c1cccnc1Br)C(=O)N[C@@H](CCC(N)=O)C(=O)N[C@@H](CC(N)=O)C(=O)N[C@H](C(=O)N[C@@H](Cc1ccccc1)C(=O)N[C@@H](CCCCN)C(=O)N[C@H](C(=O)N[C@@H](CO)C(=O)N[C@@H](CCCCN)C(=O)N[C@@H](CCCNC(=N)N)C(=O)N[C@@H](CCC(N)=O)C(=O)N[C@@H](CO)C(=O)N[C@@H](Cc1ccccc1)C(=O)N[C@@H](C)C(=O)N1CCC[C@H]1C(N)=O)C(C)C)[C@@H](C)O` (X3-YLQNTFKVSKRQSFAP-NH2), for which the Activity in [1] came to 37.7%; in series [5], 13.1%; in series [6] it was 21.6%; in [7], 27.6%. In addition, the Kq in series [2] was 1.7 10^12/M. In addition, the Binding constant in [3] is 0.18 10^4/M.
For the compound `Cc1ccncc1C(=O)N[C@@H](Cc1ccc(O)cc1)C(=O)N[C@@H](CC(C)C)C(=O)N[C@@H](CCC(N)=O)C(=O)N[C@@H](CC(N)=O)C(=O)N[C@H](C(=O)N[C@@H](Cc1ccccc1)C(=O)N[C@@H](CCCCN)C(=O)N[C@H](C(=O)N[C@@H](CO)C(=O)N[C@@H](CCCCN)C(=O)N[C@@H](CCCNC(=N)N)C(=O)N[C@@H](CCC(N)=O)C(=O)N[C@@H](CO)C(=O)N[C@@H](Cc1ccccc1)C(=O)N[C@@H](C)C(=O)N1CCC[C@H]1C(N)=O)C(C)C)[C@@H](C)O` (X4-YLQNTFKVSKRQSFAP-NH2), the Activity in series [1] is 37.9%; in [5] it was 11.3%; in series [6] it was 18.1%; in series [7] it was 32.7%. The Kq in [2] was 1.77 10^12/M. Besides, the Binding constant in series [3] is 0.76 10^4/M.
As to `CC(C)C[C@H](NC(=O)[C@H](Cc1ccc(O)cc1)NC(=O)c1ccc[n+]([O-])c1)C(=O)N[C@@H](CCC(N)=O)C(=O)N[C@@H](CC(N)=O)C(=O)N[C@H](C(=O)N[C@@H](Cc1ccccc1)C(=O)N[C@@H](CCCCN)C(=O)N[C@H](C(=O)N[C@@H](CO)C(=O)N[C@@H](CCCCN)C(=O)N[C@@H](CCCNC(=N)N)C(=O)N[C@@H](CCC(N)=O)C(=O)N[C@@H](CO)C(=O)N[C@@H](Cc1ccccc1)C(=O)N[C@@H](C)C(=O)N1CCC[C@H]1C(N)=O)C(C)C)[C@@H](C)O` (X5-YLQNTFKVSKRQSFAP-NH2), the Activity turned out to be 40.6% in series [1], 13.2% in series [5], 14% in series [6] and 32.2% in [7]. The Kq in [2] was 1.34 10^12/M. In series [3], the Binding constant is 0.89 10^4/M.
In the case of `CC(C)C[C@H](NC(=O)[C@H](Cc1ccc(O)cc1)NC(=O)c1cccnc1S)C(=O)N[C@@H](CCC(N)=O)C(=O)N[C@@H](CC(N)=O)C(=O)N[C@H](C(=O)N[C@@H](Cc1ccccc1)C(=O)N[C@@H](CCCCN)C(=O)N[C@H](C(=O)N[C@@H](CO)C(=O)N[C@@H](CCCCN)C(=O)N[C@@H](CCCNC(=N)N)C(=O)N[C@@H](CCC(N)=O)C(=O)N[C@@H](CO)C(=O)N[C@@H](Cc1ccccc1)C(=O)N[C@@H](C)C(=O)N1CCC[C@H]1C(N)=O)C(C)C)[C@@H](C)O` (X6-YLQNTFKVSKRQSFAP-NH2), the Activity was 36.2% in series [1], 10.8% in [5], 28.8% in series [6] and 24.2% in series [7]. Further, the Kq in series [2] was 5.85 10^12/M. Further, the Binding constant in series [3] was 0.72 10^4/M.
Take `CC(C)C[C@H](NC(=O)[C@H](Cc1ccc(O)cc1)NC(=O)c1ccc(C(F)(F)F)nc1)C(=O)N[C@@H](CCC(N)=O)C(=O)N[C@@H](CC(N)=O)C(=O)N[C@H](C(=O)N[C@@H](Cc1ccccc1)C(=O)N[C@@H](CCCCN)C(=O)N[C@H](C(=O)N[C@@H](CO)C(=O)N[C@@H](CCCCN)C(=O)N[C@@H](CCCNC(=N)N)C(=O)N[C@@H](CCC(N)=O)C(=O)N[C@@H](CO)C(=O)N[C@@H](Cc1ccccc1)C(=O)N[C@@H](C)C(=O)N1CCC[C@H]1C(N)=O)C(C)C)[C@@H](C)O` ({Nicotinoyl(6-CF3)}-YLQNTFKVSKRQSFAP-NH2): the Activity is 48.3% in series [1]; 11.2% in series [5]; 18.4% in series [6]; 22.1% in series [7]; “Non-Toxic” with HEK293. Moreover, in series [2], the Kq is 1.24 10^12/M. For the same compound, the Binding constant in [3] was 1.97 10^4/M. In addition, in the series on MCF7, the viability at 100 µM came out at 79.1%.
